Common to all, as to type: ADME
For data set [1], the target named is T1, Cytochrome P450 3A4 (Homo sapiens, UniProt P08684). The experiment in a line: Inhibition of recombinant CYP3A4 NF-14 expressed in Escherichia coli assessed as formation of 6-beta-hydroxytestosterone using testosterone as substrate after 5 mins by HPLC based UV method.
A further data set has as its target CYP3A4 (Homo sapiens, UniProt P08684). Kind of data set: (§1) Metabolic stability of the compound assessed as CYP3A4 NF-14-mediated N-demethylation. To be noted: human, CYP3A4 NF-14.
For data set [2], the target named is T1, Cytochrome P450 3A4. The description is as §1.
The target in data set [3] is T1, Cytochrome P450 3A4. The experiment in a line: Metabolic stability of the compound assessed as CYP3A4 NF-14-mediated aromatic hydroxylation at ring-B.
The target in data set [4] is T1, Cytochrome P450 3A4. Kind of data set: Intrinsic clearance assessed as CYP3A4-mediated clearance. To be noted: recombinant enzyme.
The target of data set [5] is T1, Cytochrome P450 3A4. The experiment in a line: Binding affinity to recombinant CYP3A4 NF-14 expressed in Escherichia coli at maximum spectrum 385 to 390 nm and a trough at 415 to 420 nm by UV-Visible spectroscopy. The note with it: recombinant enzyme.
Data set [6] has as its target T1, Cytochrome P450 3A4. Kind of data set: Binding affinity to recombinant CYP3A4 NF-14 expressed in Escherichia coli at maximum spectrum 420 to 435 and a trough at 390 to 405 nm by UV-Visible spectroscopy. To be noted: recombinant enzyme, 0.405 µM.
For data set [7], the target named is T1, Cytochrome P450 3A4. The experiment in a line: Metabolic stability of the compound assessed as CYP3A4 NF-14-mediated ratio of product formation from functional group oxidation at ring A to aromatic hydroxylation at ring A.
The target in data set [8] is T1, Cytochrome P450 3A4. The experiment in a line: Metabolic stability of the compound assessed as CYP3A4 NF-14-mediated aromatic hydroxylation at ring-A.
For data set [9], the target named is T1, Cytochrome P450 3A4. The experiment in a line: Metabolic stability of the compound assessed as CYP3A4 NF-14-mediated ratio of product formation from functional group oxidation at ring A to aromatic hydroxylation at ring B.

Molecules are shown by their SMILES.

T1 sequence (P08684 whole entry): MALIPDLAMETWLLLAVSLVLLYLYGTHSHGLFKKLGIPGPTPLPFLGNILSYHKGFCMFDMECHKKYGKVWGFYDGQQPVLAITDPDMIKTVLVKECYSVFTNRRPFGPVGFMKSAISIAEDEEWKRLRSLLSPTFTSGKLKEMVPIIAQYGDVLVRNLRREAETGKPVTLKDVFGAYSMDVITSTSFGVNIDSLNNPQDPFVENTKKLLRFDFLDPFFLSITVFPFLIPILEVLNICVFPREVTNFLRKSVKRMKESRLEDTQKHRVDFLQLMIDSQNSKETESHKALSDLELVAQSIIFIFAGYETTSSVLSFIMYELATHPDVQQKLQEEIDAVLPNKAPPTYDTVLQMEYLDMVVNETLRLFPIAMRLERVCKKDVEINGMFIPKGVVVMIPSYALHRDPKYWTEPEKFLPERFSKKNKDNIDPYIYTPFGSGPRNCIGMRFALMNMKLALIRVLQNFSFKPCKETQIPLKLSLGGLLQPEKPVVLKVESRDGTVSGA
Chain of CYP3A4 (P08684 whole entry): as above

One may read the Ki as a measure of affinity in units of concentration, obtained from inhibition or displacement. By Km is commonly meant the concentration of substrate that gives half-maximal velocity. `CN(C)c1ccc(NC(=O)c2cc(-c3ccccc3)nc3ccccc23)cc1`: the Ki at Cytochrome P450 3A4 [1] turned out to be 14.4 µM. Moreover, the Km at CYP3A4 is 2.9 µM. For the same compound, the Kcat came out at 0.465 s⁻¹ at Cytochrome P450 3A4 [2] and 0 s⁻¹ on Cytochrome P450 3A4 [3]. The CL at Cytochrome P450 3A4 [4] was determined as 9.6 µM⁻¹ min⁻¹. Besides, on Cytochrome P450 3A4 [5], the result was Active.
In the case of `Cc1ccc(NC(=O)c2cc(-c3cnccn3)nc3ccccc23)cc1`, the Ki at Cytochrome P450 3A4 [1] stood at 2.7 µM. Besides, the CL on Cytochrome P450 3A4 [4] is 3.3 µM⁻¹ min⁻¹. Further, the result on Cytochrome P450 3A4 [6] was Active.
As for `CN(C)c1ccc(NC(=O)c2cc(-c3ccncn3)nc3ccccc23)cc1`, the Ki at Cytochrome P450 3A4 [1] was determined as 8.4 µM. The CL on Cytochrome P450 3A4 [4] was determined as 3.4 µM⁻¹ min⁻¹. Also, the result on Cytochrome P450 3A4 [6] was Active.
The like results for `Cc1ccc(NC(=O)c2cc(-c3ccncn3)nc3ccccc23)cc1` were, in that order, 3 µM, 4 µM⁻¹ min⁻¹ and “Active”.
`COc1ccc(NC(=O)c2cc(-c3ccncc3)nc3ccccc23)cc1`: at Cytochrome P450 3A4 [1], the Ki is 0.54 µM. Also, the Ratio at Cytochrome P450 3A4 [7] was determined as 1.4. Further, at Cytochrome P450 3A4 [4], the CL was determined as 4.4 µM⁻¹ min⁻¹. For the same compound, the outcome at Cytochrome P450 3A4 [6] was Active. Further, on Cytochrome P450 3A4 [8], the Kcat came out at 0.0217 s⁻¹ and the Km turned out to be 0.7 µM.
On to `Cc1ccc(NC(=O)c2cc(-c3ccccc3)nc3ccccc23)cc1`, for which the Ratio on Cytochrome P450 3A4 [9] was found to be 6. The inhibition constant (Ki) at Cytochrome P450 3A4 [1] amounted to 3.97 µM. For the same compound, at Cytochrome P450 3A4 [4], the CL turned out to be 3.4 µM⁻¹ min⁻¹. At Cytochrome P450 3A4 [5], the outcome was Active.
Turning to `Cc1ccc(NC(=O)c2cc(-c3ccccn3)nc3ccccc23)cc1`, on Cytochrome P450 3A4 [1], the Ki was 3.9 µM. Also, the CL on Cytochrome P450 3A4 [4] worked out at 2.9 µM⁻¹ min⁻¹. Further, at Cytochrome P450 3A4 [5], the result was Active.
As for `O=C(Nc1ccccc1)c1cc(-c2ccncn2)nc2ccccc12`, the Ki on Cytochrome P450 3A4 [1] came to 2.2 µM. For the same compound, the CL at Cytochrome P450 3A4 [4] was found to be 3.2 µM⁻¹ min⁻¹. Also, the outcome on Cytochrome P450 3A4 [6] was Active.
Turning to `COc1ccc(NC(=O)c2cc(-c3ccncn3)nc3ccccc23)cc1`, at Cytochrome P450 3A4 [1], the inhibition constant (Ki) turned out to be 2.2 µM. Besides, on Cytochrome P450 3A4 [4], the CL is 3.3 µM⁻¹ min⁻¹. Besides, on Cytochrome P450 3A4 [6], the result was Active.
In the case of `O=C(Nc1ccccc1)c1cc(-c2ccccc2)nc2ccccc12`, at Cytochrome P450 3A4 [9], the Ratio is reported as 1.3. Moreover, the Ki on Cytochrome P450 3A4 [1] was found to be 4.1 µM. At Cytochrome P450 3A4 [4], the CL is 1.3 µM⁻¹ min⁻¹. In addition, the outcome at Cytochrome P450 3A4 [5] was Active.
Take `CN(C)c1ccc(NC(=O)c2cc(-c3ccncc3)nc3ccccc23)cc1`: the Ki on Cytochrome P450 3A4 [1] is 0.8 µM. In addition, the figures for the Kcat on Cytochrome P450 3A4 [2] and at Cytochrome P450 3A4 [8] were 0.218 s⁻¹ and 0 s⁻¹, respectively. Further, on Cytochrome P450 3A4 [4], the CL came to 12.7 µM⁻¹ min⁻¹. Besides, at Cytochrome P450 3A4 [6], the outcome was Active.
For `O=C(Nc1ccccc1)c1cc(-c2ccccn2)nc2ccccc12`, at Cytochrome P450 3A4 [1], the Ki was determined as 14.5 µM. In addition, on Cytochrome P450 3A4 [4], the CL came out at 1.3 µM⁻¹ min⁻¹. For the same compound, on Cytochrome P450 3A4 [5], the result was Active.
As for `O=C(Nc1ccccc1)c1cc(-c2cnccn2)nc2ccccc12`, the Ki on Cytochrome P450 3A4 [1] was determined as 6.9 µM. For the same compound, the CL on Cytochrome P450 3A4 [4] is 2.5 µM⁻¹ min⁻¹. Besides, the outcome at Cytochrome P450 3A4 [6] was Active.
In the case of `CN(C)c1ccc(NC(=O)c2cc(-c3ccccn3)nc3ccccc23)cc1`, the Ki at Cytochrome P450 3A4 [1] amounted to 32.9 µM. Besides, the CL at Cytochrome P450 3A4 [4] was 1 µM⁻¹ min⁻¹. For the same compound, the outcome on Cytochrome P450 3A4 [5] was Active.
With `O=C(Nc1ccccc1)c1cc(-c2ccncc2)nc2ccccc12`, at Cytochrome P450 3A4 [1], the Ki was found to be 0.7 µM. For the same compound, the Ratio on Cytochrome P450 3A4 [7] is reported as 1.3. The CL at Cytochrome P450 3A4 [4] is 12.1 µM⁻¹ min⁻¹. Moreover, the result at Cytochrome P450 3A4 [6] was Active.
For `Cc1ccc(NC(=O)c2cc(-c3ccncc3)nc3ccccc23)cc1`, the Ki at Cytochrome P450 3A4 [1] was determined as 0.54 µM. In addition, the Ratio at Cytochrome P450 3A4 [7] is given as 4.4. In addition, on Cytochrome P450 3A4 [4], the CL was found to be 9.7 µM⁻¹ min⁻¹. Further, the outcome on Cytochrome P450 3A4 [6] was Active.
In the case of `COc1ccc(NC(=O)c2cc(-c3cnccn3)nc3ccccc23)cc1`, at Cytochrome P450 3A4 [1], the Ki amounted to 20.1 µM. At Cytochrome P450 3A4 [4], the CL was 3.4 µM⁻¹ min⁻¹. The result at Cytochrome P450 3A4 [6] was Active.
Regarding `COc1ccc(NC(=O)c2cc(-c3ccccn3)nc3ccccc23)cc1`, at Cytochrome P450 3A4 [1], the Ki was found to be 11.9 µM. The CL on Cytochrome P450 3A4 [4] stood at 2.2 µM⁻¹ min⁻¹. Moreover, on Cytochrome P450 3A4 [5], the outcome was Active.
Take `CN(C)c1ccc(NC(=O)c2cc(-c3cnccn3)nc3ccccc23)cc1`: the Ki on Cytochrome P450 3A4 [1] was 15.9 µM. For the same compound, on Cytochrome P450 3A4 [4], the CL came to 2.8 µM⁻¹ min⁻¹. Moreover, the result at Cytochrome P450 3A4 [6] was Active.
